Common to all, as to assay type: cell-based
One test has as its target T1, OATP1B1 (Homo sapiens, UniProt Q9Y6L6).
T1 construct: expressed in transfected cells; host or cells: A431 cells
T1 sequence (Q9Y6L6 1-691): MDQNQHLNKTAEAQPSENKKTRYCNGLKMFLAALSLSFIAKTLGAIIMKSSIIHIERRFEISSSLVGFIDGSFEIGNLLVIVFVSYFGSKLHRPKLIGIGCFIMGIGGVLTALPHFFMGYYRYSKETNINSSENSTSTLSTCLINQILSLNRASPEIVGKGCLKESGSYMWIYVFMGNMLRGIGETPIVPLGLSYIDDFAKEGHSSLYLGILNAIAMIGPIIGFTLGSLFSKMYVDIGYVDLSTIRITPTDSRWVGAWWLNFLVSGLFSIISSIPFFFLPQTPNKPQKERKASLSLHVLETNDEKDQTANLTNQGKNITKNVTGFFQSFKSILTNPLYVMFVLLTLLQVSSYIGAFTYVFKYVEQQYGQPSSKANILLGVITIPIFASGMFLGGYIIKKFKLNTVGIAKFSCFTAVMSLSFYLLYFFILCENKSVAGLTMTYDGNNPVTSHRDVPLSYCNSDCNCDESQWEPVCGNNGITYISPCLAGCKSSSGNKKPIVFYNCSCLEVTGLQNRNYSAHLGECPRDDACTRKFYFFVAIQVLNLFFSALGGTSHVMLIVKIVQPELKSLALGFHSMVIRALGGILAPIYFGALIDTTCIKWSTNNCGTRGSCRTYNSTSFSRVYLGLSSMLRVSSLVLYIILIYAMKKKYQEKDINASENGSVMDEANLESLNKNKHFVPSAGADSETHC
Briefly: Pyranine transport inhibition in A431 cells overexpressing OATP1B1. The settings on record: initial three-point screen (1, 10, 100 μM), category by concentration needed for 50% inhibition, pyranine 10 μM, 15 min, pH 5.5; for IC50: read-out: IC50 (μM) OATP1B1. Here is the method: (§1) A431 cells overexpressing OATP1B1, OATP1B3, or OATP2B1 or their mock transfected controls were generated previously[30] and maintained in Dulbecco’s modified Eagle medium (DMEM, Gibco, Thermofisher Scientific, Waltham, MA, US) supplemented with 10% fetal bovine serum, 2 mM L-glutamine, 100 units/mL penicillin, and 100 μg/mL streptomycin. Expression and function of OATPs in the cell lines were checked regularly.
(§2) Interaction with OATP1B1, OATP1B3, or OATP2B1 was tested in an indirect transport assay using pyranine (8-hydroxypyrene-1,3,6-trisulfonic acid trisodium salt, H1529, Sigma, Merck, Budapest, Hungary) as the test substrate[31],[32] A431 cells overexpressing OATP1B1, OATP1B3, or OATP2B1 or their mock transfected controls were seeded on 96-well plates in a density of 8 × 10^4 cells per well in 200 μL of cell culture medium 1 day prior to the transport measurements. […] The transport reaction was started by the addition of 50 μL of uptake buffer containing pyranine in a final concentration of 10 μM (OATP1B1) or 20 μM (OATP1B3 and OATP2B1), and the cells were further incubated at 37 °C for 15 min (OATP1B1 and OATP2B1) or 30 min (OATP1B3). The reaction was stopped by removing the supernatant. After repeated washing with ice-cold PBS, fluorescence was determined in an Enspire plate reader (PerkinElmer, Waltham, MA) with excitation/emission wavelengths of 460/510 nm. OATP-dependent transport was calculated by extracting fluorescence measured in mock transfected cells and normalized to the fluorescence signal obtained in the absence of the tested compounds (100%). Experiments were repeated in at least three biological replicates.

The target in the next test is T2, OATP1B3 (Homo sapiens, UniProt Q9NPD5).
T2 construct: expressed in transfected cells; host or cells: A431 cells
T2 sequence (Q9NPD5 1-702): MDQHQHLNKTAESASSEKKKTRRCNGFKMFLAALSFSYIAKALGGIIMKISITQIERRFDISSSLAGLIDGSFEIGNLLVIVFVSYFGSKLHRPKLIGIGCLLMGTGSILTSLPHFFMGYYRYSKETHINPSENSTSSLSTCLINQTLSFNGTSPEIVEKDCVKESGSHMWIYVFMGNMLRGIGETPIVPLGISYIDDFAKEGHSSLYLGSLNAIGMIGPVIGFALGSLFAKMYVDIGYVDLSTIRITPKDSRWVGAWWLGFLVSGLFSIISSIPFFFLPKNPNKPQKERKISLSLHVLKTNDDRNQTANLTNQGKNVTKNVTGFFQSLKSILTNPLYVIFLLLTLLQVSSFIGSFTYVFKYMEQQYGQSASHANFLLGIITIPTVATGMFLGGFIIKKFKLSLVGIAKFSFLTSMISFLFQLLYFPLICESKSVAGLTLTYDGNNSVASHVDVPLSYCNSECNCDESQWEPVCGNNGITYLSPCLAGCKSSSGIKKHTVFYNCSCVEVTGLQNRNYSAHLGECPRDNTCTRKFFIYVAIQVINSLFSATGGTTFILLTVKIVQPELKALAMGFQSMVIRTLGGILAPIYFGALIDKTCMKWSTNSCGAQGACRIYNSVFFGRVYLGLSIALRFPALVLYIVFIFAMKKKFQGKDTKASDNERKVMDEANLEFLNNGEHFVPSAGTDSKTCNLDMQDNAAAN
Kind of test: Pyranine transport inhibition in A431 cells overexpressing OATP1B3. The settings on record: category by concentration needed for 50% inhibition, pyranine 20 μM, 30 min, pH 5.5. How it is done:
as §1, §2

For the next test, the target named is T3, OATP2B1 (Homo sapiens, UniProt O94956).
T3 construct: expressed in transfected cells; host or cells: A431 cells
T3 sequence (O94956 1-709): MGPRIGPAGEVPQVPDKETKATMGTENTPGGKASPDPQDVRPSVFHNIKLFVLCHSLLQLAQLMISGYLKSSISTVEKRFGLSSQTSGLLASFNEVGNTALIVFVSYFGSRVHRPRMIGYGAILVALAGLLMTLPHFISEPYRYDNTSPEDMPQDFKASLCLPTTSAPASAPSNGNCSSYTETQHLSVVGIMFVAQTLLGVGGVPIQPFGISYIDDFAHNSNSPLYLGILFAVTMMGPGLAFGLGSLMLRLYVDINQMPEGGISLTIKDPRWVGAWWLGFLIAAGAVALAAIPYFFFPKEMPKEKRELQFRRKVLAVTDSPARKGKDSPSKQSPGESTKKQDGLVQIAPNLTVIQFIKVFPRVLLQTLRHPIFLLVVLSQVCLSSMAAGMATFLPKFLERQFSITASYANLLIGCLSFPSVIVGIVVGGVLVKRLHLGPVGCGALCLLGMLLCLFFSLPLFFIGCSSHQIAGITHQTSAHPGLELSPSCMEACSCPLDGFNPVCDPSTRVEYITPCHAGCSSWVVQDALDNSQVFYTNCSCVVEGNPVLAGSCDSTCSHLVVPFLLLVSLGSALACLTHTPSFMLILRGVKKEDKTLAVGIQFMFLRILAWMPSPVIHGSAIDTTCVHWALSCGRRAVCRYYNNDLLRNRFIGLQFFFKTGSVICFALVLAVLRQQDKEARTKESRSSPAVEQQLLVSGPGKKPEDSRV
Kind of test: Pyranine transport inhibition in A431 cells overexpressing OATP2B1. The settings on record: category by concentration needed for 50% inhibition, pyranine 20 μM, 15 min, pH 5.5. Here is the method:
as §1, §2

[1] abbreviates: initial three-point screen (1, 10, 100 μM), read-out: IC50 (μM) OATP1B3.
The mark [2] stands for this setting: initial three-point screen (1, 10, 100 μM), read-out: IC50 (μM) OATP2B1.
Where [3] appears, read: initial three-point screen (1, 10, 100 μM).

Like-named read-outs stand apart in the source and are kept apart here.

Regarding `N#Cc1c(NC(=O)COC(=O)CN2C(=O)NC3(CCc4ccccc43)C2=O)sc2c1CCCCC2` (stereo not drawn) [A2, O=C(COC(=O)CN1C(=O)NC2(CCc3ccccc23)C1=O)Nc4sc5CCCCCc5c4C#N], the IC50 at OATP1B1, at OATP1B3 (setting [1]) and on OATP2B1 (setting [2]) was 1 to 10 µM throughout.
For `Cc1occc1-c1nnc(SCC(=O)c2ccc3c(c2)NC(=O)CO3)n1Cc1ccccc1` [A3, Cc1occc1c2nnc(SCC(=O)c3ccc4OCC(=O)Nc4c3)n2Cc5ccccc5], the IC50 at OATP1B1 was 1 to 10 µM; at OATP1B3 (setting [1]), above 10 µM; on OATP2B1 (setting [2]), 1 to 10 µM.
Regarding `Fc1ccccc1-c1cc(-c2ccccc2)c2c3c(sc2n1)CCCC3` [A4, Fc1ccccc1c2cc(c3ccccc3)c4c5CCCCc5sc4n2], the “IC50 (μM) OATP1B1” value against OATP1B1 was “no effect”. Moreover, the “IC50 (μM) OATP1B3” value at OATP1B3 (setting [3]) is listed as “no effect”. Also, the IC50 at OATP2B1 (setting [2]) is above 10 µM.
In the case of `Fc1ccc(C2CC(c3cccs3)=NN2c2nc(-c3ccccc3)c3cc(Cl)ccc3n2)cc1` (stereo not drawn) [A5, Fc1ccc(cc1)C2CC(=NN2c3nc(c4ccccc4)c5cc(Cl)ccc5n3)c6cccs6], the “IC50 (μM) OATP1B1” value against OATP1B1 is “no effect”. In addition, on OATP1B3 (setting [3]), the “IC50 (μM) OATP1B3” value is “no effect”. The IC50 on OATP2B1 (setting [2]) is above 10 µM.
`O=C(CN1C(=O)NC(Cc2c[nH]c3ccccc23)C1=O)Nc1ccc(OCc2ccccc2)cc1` (stereo not drawn) [A6, O=C(CN1C(=O)NC(Cc2c[nH]c3ccccc23)C1=O)Nc4ccc(OCc5ccccc5)cc4]: the “IC50 (μM) OATP1B1” value at OATP1B1 is on record as “no effect”. Moreover, the IC50 on OATP1B3 (setting [1]) and at OATP2B1 (setting [2]) was above 10 µM in each case.
Consider `CC(C)(C)c1ncc(NC(=O)c2ccccc2-c2ncc(-c3ccccc3)o2)cn1` [A7, CC(C)(C)c1ncc(NC(=O)c2ccccc2c3oc(cn3)c4ccccc4)cn1], for which the “IC50 (μM) OATP1B1” value on OATP1B1 is reported as “no effect”. The “IC50 (μM) OATP1B3” value on OATP1B3 (setting [3]) is “Activated”. At OATP2B1 (setting [2]), the IC50 lay in the range of 1 to 10 µM.
Regarding `Cc1ccc(NC(=O)C(Sc2nnc3n2CCCCC3)c2ccccc2)cc1Cl` (stereo not drawn) [B2, Cc1ccc(NC(=O)C(Sc2nnc3CCCCCn23)c4ccccc4)cc1Cl], at OATP1B1, the “IC50 (μM) OATP1B1” value is “no effect”. Besides, the IC50 against OATP1B3 (IC50 (μM) OATP1B3, initial three-point screen (1, 10, 100 μM)) was above 10 µM; on OATP2B1 (IC50 (μM) OATP2B1, initial three-point screen (1, 10, 100 μM)) it was above 10 µM.
As for `O=C(CC12CC3CC(CC(C3)C1)C2)NCC(=O)N1CCN(S(=O)(=O)c2ccccc2F)CC1` [B3, Fc1ccccc1S(=O)(=O)N2CCN(CC2)C(=O)CNC(=O)CC34CC5CC(CC(C5)C3)C4], the IC50 on OATP1B1 was above 10 µM; on OATP1B3 (setting [1]) it was above 10 µM; at OATP2B1 (setting [2]) it was 1 to 10 µM.
Take `Cc1cc(C)n2nc(SCc3ccccc3C(=O)NCCc3ccc4c(c3)OCCO4)nc2n1` [C2, Cc1cc(C)n2nc(SCc3ccccc3C(=O)NCCc4ccc5OCCOc5c4)nc2n1]: the IC50 on OATP1B1 and on OATP2B1 (setting [2]) was 1 to 10 µM each time.
Turning to `CC(OC(=O)c1cc(Cl)c2c(c1)OCCCO2)C(=O)c1ccc2c(c1)NC(=O)CO2` (stereo not drawn) [D4, CC(OC(=O)c1cc(Cl)c2OCCCOc2c1)C(=O)c3ccc4OCC(=O)Nc4c3], the half-maximal inhibitory concentration (IC50) at OATP2B1 (setting [2]) was in the range of 1 to 10 µM.
For the compound `O=C(OCC(=O)N(C1CCCCC1)C1CCCCC1)c1nn(-c2ccccc2)c(=O)c2ccccc12` [D5, O=C(COC(=O)C1=NN(C(=O)c2ccccc12)c3ccccc3)N(C4CCCCC4)C5CCCCC5], the IC50 at OATP1B1 and at OATP1B3 (setting [1]) was above 10 µM throughout.
In the case of `O=C(CN1C(=O)NC2(CCCc3ccccc32)C1=O)Nc1nnc(C23CC4CC(CC(C4)C2)C3)s1` (stereo not drawn) [D6, O=C(CN1C(=O)NC2(CCCc3ccccc23)C1=O)Nc4nnc(s4)C56CC7CC(CC(C7)C5)C6], the 50% inhibitory concentration (IC50) at OATP1B1 is above 10 µM; at OATP2B1 (setting [2]), 1 to 10 µM.
Consider `CC1CCN(c2nnc(SCC(=O)NCC3COc4ccccc4O3)n2C2CC2)CC1` (stereo not drawn) [E4, CC1CCN(CC1)c2nnc(SCC(=O)NCC3COc4ccccc4O3)n2C5CC5], for which the IC50 on OATP1B3 (setting [1]) is above 10 µM; at OATP2B1 (setting [2]), 1 to 10 µM.
In the same order, the values of `O=C(Nc1ccccc1)c1ccccc1OCC(=O)N1CCN(C(=O)c2ccco2)CC1` [F2, O=C(COc1ccccc1C(=O)Nc2ccccc2)N3CCN(CC3)C(=O)c4occc4] are above 10 µM and 1 to 10 µM.
For `O=C(CCc1ncc(-c2c(F)cccc2F)o1)N1CCN(S(=O)(=O)c2ccccc2F)CC1` [G3, Fc1cccc(F)c1c2oc(CCC(=O)N3CCN(CC3)S(=O)(=O)c4ccccc4F)nc2] the same measures were above 10 µM and 1 to 10 µM.
Turning to `CC(OC(=O)C1CCN(S(=O)(=O)c2ccc3c(c2)OCCO3)CC1)C(=O)Nc1cccc(C#N)c1` (stereo not drawn) [H3, CC(OC(=O)C1CCN(CC1)S(=O)(=O)c2ccc3OCCOc3c2)C(=O)Nc4cccc(c4)C#N], the IC50 on OATP1B1 and on OATP2B1 (setting [2]) was 1 to 10 µM throughout.

The record behind these values is PMC9795544, “Identifying Novel Inhibitors for Hepatic Organic Anion Transporting Polypeptides by Machine Learning-Based Virtual Screening” (Journal of Chemical Information and Modeling, 2022).
